Experimental data published in patent US10570179B2, “Substituted urea depsipeptide analogs as activators of the CLPP endopeptidase” (priority 2016, dated 2020).
In brackets after ≈: the same amount, converted by molar mass. Numbered stars: 1 amine (or outer) side, 2 acyl side, 3 side chain; on linkers, the order of the positions; unused ones are H or OH. Bridge positions count the residues as written; N and C are the ends. Square brackets hold non-standard residues; d marks the D form. Peptide text beside a SMILES is read from it. * marks the point of attachment. Piperazine(2S-CO,4-Me) = CN1CCN[C@H](C(=O)O)C1; Phe(3,5-Me2) = Cc1cc(C)cc(C[C@H](N)C(=O)O)c1; Phe(3-OMe) = COc1cccc(C[C@H](N)C(=O)O)c1; Phe(3-Me) = Cc1cccc(C[C@H](N)C(=O)O)c1; NH(4-Cl-2-F-phenyl) = Fc1cc(Cl)ccc1N*; Pro(4R-Me) = C[C@H]1CN[C@H](C(=O)O)C1; NH(4-Et-phenyl) = CCc1ccc(N*)cc1; aThr = C[C@H](O)[C@H](N)C(=O)O; Pip = O=C(O)[C@@H]1CCCCN1; CO = O=C([*:1])[*:2]; X2 = Fc1cc(N*)ccc1Cl

How the values were obtained:
[1] = test system: B. subtilis; experiment: Minimal inhibitory concentration, microbroth dilution; assay type: cell-based; settings: Bacillus subtilis; MIC; read-out: Minimal Inhibitory Concentrations (μM) B. subtilis
Procedure, shortened: (§1)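 Compound was diluted twofold in the appropriate broth. Bacterial suspension (approx. 10^5 cfu/mL) was then added in equal volume, giving a maximum test concentration of 200 μM. After aerobic overnight incubation at 37 °C, wells were inspected visually for growth.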

[2] = test system: S. pyogenes; experiment: as above; assay type: cell-based; settings: Streptococcus pyogenes; MIC; read-out: Minimal Inhibitory Concentrations (μM) S. pyogenes
Procedure, shortened: as §1

[3] = Solubility determination; assay type: physicochemical; settings: for solubility kinetic at 10 min: 22 °C, aqueous buffer, kinetic from dmso stock
Procedure, shortened: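 DMSO stock spiked into DPBS at 100 µM final, in triplicate, shaken 10 min, then centrifuged 20 min at 22 °C. Supernatant quantified by UPLC-UV and single-ion-recording MS against DMSO calibration standards (0.098–100 µM), using 1/x²-weighted linear regression.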

[4] = Plasma pharmacokinetics; assay type: in vivo, male BALB/c mice; settings: male, BALB/c, mouse, in vivo, iv; for Vd: 10 mg/kg, Route i.v., read-out: Vss
[5] = Cytotoxicity assay (CellTiter-Glo cell viability); assay type: cell-based; settings: African green monkey
Protocol: Cytotoxicity was determined by determining the effect of compounds on cell viability. Vero (kidney epithelial cells; ATCC CCL-81) monolayers were trypsinized and 5000 cells/well were seeded (10-15% confluency) into white-wall, flat bottom 96 well microwell plates (Corning) using enriched Dulbecco's Modified Eagle's Medium (Hyclone: DMEM/High Glucose) containing 10% Fetal Bovine Serum (ATCC-30-2020). Plates were incubated overnight at 37° C. in the presence of 5% CO2. Drug-free media was then replaced with media containing serial dilutions of test compound or DMSO carrier. After an additional 72 hours of incubation, viability was indirectly measured using the CellTiter-Glo® Luminescent Cell Viability (Promega) assay. Assay plates were read at peak emission wavelength of 560 nm using a EnVision® Multilabel Plate Reader (Perkin Elmer) or PHERAstar FS Multilabel reader (BMG, Cary, N.C.). The concentration of test compounds that inhibited growth by 50% (IC50 value) was computed using nonlinear regression based fitting of inhibition curves using log [inhibitor] vs. response-variable slope (four parameters)—symmetrical equation, in GraphPad Prism version 6 [GraphPad Software, La Jolla, Calif. USA, www.graphpad.com]. For each experiment, compounds were tested in duplicate. IC50 values presented are the range of two biologically independent experiments.

[6] = test system: S. pneumoniae; experiment: Minimal inhibitory concentration, microbroth dilution; assay type: cell-based; settings: Streptococcus pneumoniae; MIC; read-out: Minimal Inhibitory Concentrations (μM) S. pneumoniae
Procedure, shortened: as §1

Row | Structure (SMILES) | MIC [1] | MIC [2] | μsol (μM) [3] | μsol (μg/mL) [3] | solubility kinetic at 10 min [3] | AUC(0-inf) [4] | AUC(0-t) [4] | C^0 [4] | clearance [4] | half-life [4] | Vd [4] | IC50 at 72 h [5] | MIC [6]
1 | Cc1cccc(C[C@H](NC(=O)Nc2ccc(Cl)cc2F)C(=O)N[C@@H]2C(=O)N3CCC[C@H]3C(=O)N3CCCC[C@H]3C(=O)N[C@@H](C)C(=O)N3C[C@H](C)C[C@H]3C(=O)O[C@H]2C)c1 [Compound 3, (S)-2-(3-(4-CHLORO-2-FLUOROPHENYL)UREIDO)-3-(M-TOLYL)-N-((2R,6S,8AS,14AS,20S,21S,23AS)-2,6,21-TRIMETHYL-5,8,14,19,23-PENTAOXOOCTADECAHYDRO-1H,5H,14H,19H-PYRIDO[2,1-I]DIPYRROLO[2,1-C:2′,1′-L][1]OXA[4,7,10,13]TETRAAZACYCLOHEXADECIN-20-YL)PROPANAMIDE] ({NH(4-Cl-2-F-phenyl)-CO}-[Phe(3-Me)][aThr]P[Pip]A[Pro(4R-Me)]; ester 2-C) | 0.078 µM (≈ 0.0643 µg/mL) | 0.313 µM (≈ 0.258 µg/mL) | 2.2 ± 0.1 µM | 1.8 ± 0.1 µg/mL | 0.5 µM (≈ 0.412 µg/mL) | 12600 ng·h/mL | 12500 ng·h/mL | 13482.56 ng/mL | 13.3 mL/min/kg | 204 min | 2.08 L/kg |  | 
2 | Cc1cc(C)cc(C[C@H](NC(=O)Nc2ccc(Cl)cc2F)C(=O)N[C@@H]2C(=O)N3CCC[C@H]3C(=O)N3CCCC[C@H]3C(=O)N[C@@H](C)C(=O)N3C[C@H](C)C[C@H]3C(=O)O[C@H]2C)c1 [Compound 4, (S)-2-(3-(4-CHLORO-2-FLUOROPHENYL)UREIDO)-3-(3,5-DIMETHYLPHENYL)-N-((2R,6S,8AS,14AS,20S,21S,23AS)-2,6,21-TRIMETHYL-5,8,14,19,23-PENTAOXOOCTADECAHYDRO-1H,5H,14H,19H-PYRIDO[2,1-I]DIPYRROLO[2,1-C:2′,1′-L][1]OXA[4,7,10,13]TETRAAZACYCLOHEXADECIN-20-YL)PROPANAMIDE] ({NH(4-Cl-2-F-phenyl)-CO}-[Phe(3,5-Me2)][aThr]P[Pip]A[Pro(4R-Me)]; ester 2-C) | 1.25 µM (≈ 1.05 µg/mL) | 1.25 µM (≈ 1.05 µg/mL) |  | <0.1 µg/mL |  |  |  |  |  |  |  | 11 ± 1.9 µM | 
3 | Cc1cccc(C[C@H](NC(=O)Nc2ccc(Cl)c(F)c2)C(=O)N[C@H]2COC(=O)[C@@H]3C[C@@H](C)CN3C(=O)[C@H](C)NC(=O)[C@@H]3CN(C)CCN3C(=O)[C@@H]3CCCN3C2=O)c1 [Compound 14, (S)-2-(3-(4-CHLORO-3-FLUOROPHENYL)UREIDO)-3-(M-TOLYL)-N-((6AS,12S,15AS,17R,21S,23AS)-2,17,21-TRIMETHYL-6,11,15,20,23-PENTAOXOOCTADECAHYDRO-2H,6H,11H,15H-PYRAZINO[2,1-I]DIPYRROLO[2,1-C:2′,1′-L][1]OXA[4,7,10,13]TETRAAZACYCLOHEXADECIN-12-YL)PROPANAMIDE] ({X2-CO}-[Phe(3-Me)]SP[Piperazine(2S-CO,4-Me)]A[Pro(4R-Me)]; ester 2-C) |  | 1.25 µM (≈ 1.03 µg/mL) | 43.6 ± 1.8 µM |  | 39.3 ± 1.9 µM (≈ 32.4 µg/mL) |  |  |  |  |  |  |  | 0.625 µM (≈ 0.516 µg/mL)
4 | CCc1ccc(NC(=O)N[C@@H](Cc2cccc(C)c2)C(=O)N[C@H]2COC(=O)[C@@H]3C[C@@H](C)CN3C(=O)[C@H](C)NC(=O)[C@@H]3CN(C)CCN3C(=O)[C@@H]3CCCN3C2=O)cc1 [Compound 16, (S)-2-(3-(4-ETHYLPHENYL)UREIDO)-3-(M-TOLYL)-N-((6AS,12S,15AS,17R,21S,23AS)-2,17,21-TRIMETHYL-6,11,15,20,23-PENTAOXOOCTADECAHYDRO-2H,6H,11H,15H-PYRAZINO[2,1-I]DIPYRROLO[2,1-C:2′,1′-L][1]OXA[4,7,10,13]TETRAAZACYCLOHEXADECIN-12-YL)PROPANAMIDE] ({NH(4-Et-phenyl)-CO}-[Phe(3-Me)]SP[Piperazine(2S-CO,4-Me)]A[Pro(4R-Me)]; ester 2-C) |  | 0.156 µM (≈ 0.125 µg/mL) | 47.4 ± 5.7 µM |  | 53.2 ± 6.5 µM (≈ 42.6 µg/mL) | 3770 ng·h/mL | 3760 ng·h/mL | 18634.35 ng/mL | 44.3 mL/min/kg | 15 min | 0.57 L/kg |  | 0.078 µM (≈ 0.0625 µg/mL)
5 | COc1cccc(C[C@H](NC(=O)Nc2ccc(Cl)cc2F)C(=O)N[C@H]2COC(=O)[C@@H]3C[C@@H](C)CN3C(=O)[C@H](C)NC(=O)[C@@H]3CN(C)CCN3C(=O)[C@@H]3CCCN3C2=O)c1 [Compound 19, (S)-2-(3-(4-CHLORO-2-FLUOROPHENYL)UREIDO)-3-(3-METHOXYPHENYL)-N-((6AS,12S,15AS,17R,21S,23AS)-2,17,21-TRIMETHYL-6,11,15,20,23-PENTAOXOOCTADECAHYDRO-2H,6H,11H,15H-PYRAZINO[2,1-I]DIPYRROLO[2,1-C:2′,1′-L][1]OXA[4,7,10,13]TETRAAZACYCLOHEXADECIN-12-YL)PROPANAMIDE] ({NH(4-Cl-2-F-phenyl)-CO}-[Phe(3-OMe)]SP[Piperazine(2S-CO,4-Me)]A[Pro(4R-Me)]; ester 2-C) |  | 10 µM (≈ 8.41 µg/mL) | 51.5 ± 1.1 µM |  | 55.9 ± 2.9 µM (≈ 47 µg/mL) |  |  |  |  |  |  |  | 2.5 µM (≈ 2.1 µg/mL)
